# Read-outs that look alike come from different tables or passages of the source.
# Key:
# [1] = In vivo pharmacokinetics after single intravenous injection in SD rats (plasma); settings: rat, single IV 5 mg/kg; for Vd: iv, 5 mg/kg; for MRT last: read-out: MRT(0-t); for MRT inf: read-out: MRT(0-∞)
# Experimental: 1. […] The mixture was stirred or sonicated until completely dissolved to obtain a clear solution at a concentration of 1 mg/mL for administration by intravenous injection.
# 2. An appropriate amount of compound 3 or compound 6 was accurately weighed, and an appropriate volume of 5% DMSO+20% PG+20% PEG400+55% PBS (pH 8.0) was added thereto. The mixture was stirred or sonicated until completely dissolved to obtain a clear solution at a concentration of 1 mg/mL for administration by intravenous administration.
# SPF grade SD rats, source: animals were transferred from the laboratory animal reserve bank (999M-017), Shanghai Sippe-Bk Lab Animal Co., Ltd.
# 3 rats/time point was set, blood samples were collected from the first 3 rats in each group, and cerebrospinal fluid and brain tissue were collected from the last 3 rats in each group. Blood sample: before administration and 5 min, 0.25 h, 0.5 h, 1 h, 1.5 h, 2 h, 4 h, 6 h, 8 h, 12 h and 24 h after administration. Tissue sample: cerebrospinal fluid and brain tissue were collected 10 min after administration.
# Blood sample: blood was collected via jugular vein or other suitable means, and about 0.20 mL of blood was collected from each rat and added into an EDTA-K2 anticoagulation tube, which was then placed on ice after collection and centrifuged within 2 h for plasma separation (centrifugation conditions: 6800 g, 6 min, 2-8° C.). The collected plasma samples were stored in a refrigerator at −70° C. before analysis, and the residual plasma samples after analysis were still stored in the refrigerator at −70° C. for subsequent processing according to the requirements of the sponsor.
# The concentration of each test compound in the plasma and tissue samples was determined. The accuracy of quality control samples was evaluated while analyzing the samples, and more than 66% of the quality control samples were required to have an accuracy between 80% and 120%.
# The pharmacokinetic parameters such as AUC(0-t), T½, Cmax, Tmax and MRT were calculated from plasma concentration data at different time points using WinNonlin.
# When plasma drug concentration-time curves were plotted, BLQ was recorded as 0. When the pharmacokinetic parameters were calculated, the concentration before administration was calculated as 0; BLQ before Cmax (including “No peak”) was calculated as 0; and BLQ that occurs after Cmax (including “No peak”) was excluded from the calculation.
# [2] = target: SUR1 receptor (Homo sapiens (Human), UniProt Q09428); assay: Binding activity for SUR1 receptor ([3H]-Glibenclamide displacement, SUR1 membrane); settings: SUR1 membrane protein, [3H]-Glibenclamide 2 nM, 37° C. 1 h
# SUR1 receptor, sequence (Q09428 whole entry): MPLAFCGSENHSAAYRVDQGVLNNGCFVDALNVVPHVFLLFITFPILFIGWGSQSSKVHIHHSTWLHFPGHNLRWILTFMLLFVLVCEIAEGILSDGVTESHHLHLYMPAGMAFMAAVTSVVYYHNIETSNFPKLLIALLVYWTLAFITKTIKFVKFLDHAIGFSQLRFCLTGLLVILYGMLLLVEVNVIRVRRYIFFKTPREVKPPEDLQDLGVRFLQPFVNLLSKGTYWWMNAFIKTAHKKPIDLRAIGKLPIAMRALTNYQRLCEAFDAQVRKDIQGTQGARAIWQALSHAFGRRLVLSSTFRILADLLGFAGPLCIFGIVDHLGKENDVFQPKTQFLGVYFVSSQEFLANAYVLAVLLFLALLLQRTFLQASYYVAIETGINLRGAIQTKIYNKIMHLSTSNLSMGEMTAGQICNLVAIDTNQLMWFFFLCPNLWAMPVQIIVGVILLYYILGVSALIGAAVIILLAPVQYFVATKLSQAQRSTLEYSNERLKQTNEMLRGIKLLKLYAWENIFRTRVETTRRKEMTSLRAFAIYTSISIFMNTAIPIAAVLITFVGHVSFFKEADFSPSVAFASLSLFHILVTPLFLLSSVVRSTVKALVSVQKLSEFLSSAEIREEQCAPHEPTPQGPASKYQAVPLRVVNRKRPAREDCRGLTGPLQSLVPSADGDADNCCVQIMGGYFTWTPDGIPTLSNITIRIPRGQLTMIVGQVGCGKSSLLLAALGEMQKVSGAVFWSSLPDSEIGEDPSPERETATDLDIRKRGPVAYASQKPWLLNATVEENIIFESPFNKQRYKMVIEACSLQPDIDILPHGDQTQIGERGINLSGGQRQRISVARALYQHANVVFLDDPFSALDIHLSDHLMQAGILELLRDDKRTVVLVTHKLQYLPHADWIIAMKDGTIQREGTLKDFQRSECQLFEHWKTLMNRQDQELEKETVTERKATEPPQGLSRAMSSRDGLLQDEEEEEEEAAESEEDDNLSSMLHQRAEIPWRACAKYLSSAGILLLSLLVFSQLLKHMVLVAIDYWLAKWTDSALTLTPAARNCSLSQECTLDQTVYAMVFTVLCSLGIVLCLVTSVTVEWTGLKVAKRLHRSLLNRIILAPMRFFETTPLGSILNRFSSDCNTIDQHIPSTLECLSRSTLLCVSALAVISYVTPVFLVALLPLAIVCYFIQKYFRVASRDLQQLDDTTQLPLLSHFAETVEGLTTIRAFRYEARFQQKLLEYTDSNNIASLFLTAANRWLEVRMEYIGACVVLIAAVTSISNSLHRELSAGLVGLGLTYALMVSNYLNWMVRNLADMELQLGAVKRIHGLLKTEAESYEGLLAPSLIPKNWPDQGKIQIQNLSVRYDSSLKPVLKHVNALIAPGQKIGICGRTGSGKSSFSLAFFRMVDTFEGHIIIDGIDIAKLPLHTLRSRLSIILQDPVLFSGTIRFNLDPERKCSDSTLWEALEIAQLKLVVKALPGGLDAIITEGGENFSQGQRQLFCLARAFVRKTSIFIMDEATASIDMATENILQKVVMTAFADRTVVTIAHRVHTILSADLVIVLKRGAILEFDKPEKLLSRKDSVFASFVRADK
# Experimental: The plate was incubated at 4° C. for 1 h. • f) The […]-96 GF/C and […]-96 GF/B plates were washed twice with Universal Harvester, each time with 50 mL of washing solution. • g) The SUR1 receptor reaction system was transferred to a […]-96 GF/B plate with Universal Harvester, and 900 μL of washing solution was added to each well to wash the GF/B plate 4 times. The washed […]-96 GF/B plate was dried in an oven at 55° C. for 10 min. • h) 40 μL of ULTIMA GOLD scintillation solution was added to each well, and the plate was read using Microbeta.
# [3] = Sprague-Dawley (SD), read-out: Vss
# [4] = Sprague-Dawley (SD), read-out: Vz
"Vd ([1]; SD, read-out: Vss) [L/kg]","Vd ([1]; SD, read-out: Vz) [L/kg]",AUC(0-inf) [1] [ng·h/mL],AUC(0-t) [1] [ng·h/mL],Cmax [1] [ng/mL],Tmax [1] [min],half-life [1] [h],MRT last [1] [h],MRT inf [1] [h],SMILES,"Vd [1, 3] [L/kg]","Vd [1, 4] [L/kg]",AUC(0-inf) ([1]; Sprague-Dawley (SD)) [ng·h/mL],AUC(0-t) ([1]; Sprague-Dawley (SD)) [ng·h/mL],Cmax ([1]; Sprague-Dawley (SD)) [ng/mL],Tmax ([1]; Sprague-Dawley (SD)) [min],half-life ([1]; Sprague-Dawley (SD)) [h],MRT last ([1]; Sprague-Dawley (SD)) [h],MRT inf ([1]; Sprague-Dawley (SD)) [h],IC50 [2] [nM]
–,–,–,–,–,–,–,–,–,"O=C(NC1CCCCC1)NS(=O)(=O)c1ccc(CCNC(=O)c2cc(Cl)ccc2O)cc1 [Compound 1, 5-chloro-N-(4-(N-(cyclohexylcarbamoyl)sulfamoyl)phenethyl)-2-hydroxybenzamide]",0.219 ± 0.0263,1 ± 0.202,28700 ± 4700,28200,65000 ± 3630,6,3.9 ± 0.6,0.9 ± 0.3,1.2 ± 0.1,–
–,–,–,–,–,–,–,–,–,"O=C(NC1CCCCC1)NS(=O)(=O)c1ccc(CCNC(=O)c2cc(Cl)ccc2OC(F)(F)F)cc1 [Compound 3, 5-chloro-N-(4-(N-(cyclohexylcarbamoyl)sulfamoyl)phenethyl)-2-(trifluoromethoxy)benzamide]",0.303 ± 0.0141,0.51 ± 0.0307,36400 ± 1170,35700 ± 1130,32800 ± 1530,6,2.6 ± 0.1,1.9 ± 0.1,2.2 ± 0.1,159
0.119 ± 0.0123,1.66 ± 1.73,13000 ± 1480,12900 ± 1460,39600 ± 4730,6,3.1 ± 3.4,0.3 ± 0.1,0.3 ± 0.1,"COc1ccc(Cl)cc1C(=O)NCCc1ccc(S(=O)(=O)NC(=O)N[C@H]2CC[C@H](O)CC2)cc1 [Compound 4, 5-chloro-N-(4-(N-(((1r,4r)-4-hydroxycyclohexyl)carbamoyl)sulfamoyl)phenethyl)-2-methoxybenzamide]",–,–,–,–,–,–,–,–,–,–
–,–,–,–,–,–,–,–,–,"COc1ccc(Cl)cc1C(=O)NCCc1ccc(S(=O)(=O)NC(=O)N[C@@H]2CCCC[C@H]2C#N)cc1 [Compound 6, 5-chloro-N-(4-(N-(((1R,2R)-2-cyanocyclohexyl)carbamoyl)sulfamoyl)phenethyl)-2-methoxybenzamide]",3.44 ± 4.53,14.6 ± 19.1,4980 ± 288,4660 ± 259,11800 ± 1060,6,5.4 ± 2.1,0.7 ± 0.1,3.6 ± 4.8,37
–,–,–,–,–,–,–,–,–,"COc1ccc(C#N)cc1C(=O)NCCc1ccc(S(=O)(=O)NC(=O)NC2CCCCC2)cc1 [Compound 7, 5-cyano-N-(4-(N-(cyclohexylcarbamoyl)sulfamoyl)phenethyl)-2-methoxybenzamide]",0.193 ± 0.0469,0.5 ± 0.16,28600 ± 7920,28500 ± 7930,42400 ± 8440,6,1.9 ± 0.2,1,1.1,6
–,–,–,–,–,–,–,–,–,"Cc1cnc(C(=O)NCCc2ccc(S(=O)(=O)NC(=O)NC3CCCCC3)cc2)cn1 [Glipizide, reference compound]",–,–,–,–,–,–,–,–,–,230

# Reference: patent US20230348371A1, “SULFONYLUREA DERIVATIVE AND MEDICAL USES THEREOF” (SHANGHAI SENHUI MEDICINE CO., LTD., priority 2020, published 2023)
